According to ChEMBL document CHEMBL6177950, “Discovery of potent and selective CDK2 inhibitors with high safety and favorable bioavailability for the treatment of cancer” (Eur J Med Chem, 2025):
Active and inactive are the calls of the source. The rule behind the calls is not given here.

Legend:
[1] = target: CDK1/Cyclin A (Homo sapiens, UniProt P06493); assay: Inhibition of CDK1/Cyclin A2 (unknown origin) pre-incubated for 10 mins followed by ATP/substrate addition and measured after 60 mins by ADP-Glo assay; type: protein-complex assay
[2] = Acute toxicity in ICR mouse assessed as pathological changes in heart at 1000 to 2500 mg/kg, po administered once for 14 days by H and E staining analysis; type: organism-based; settings: in vivo, 336 h, dose 1000-2500 mg/kg, time 14 day
[3] = tested on: OVCAR-3; assay: Induction of apoptosis in human OVCAR-3 cells assessed as early apoptotic cells at 2 uM incubated for 24 hrs by Annexin V-FITC/PI staining based flow cytometry analysis (reference value: 1.25%); type: functional
[4] = Acute toxicity in ICR mouse assessed as pathological changes in kidney at 1000 to 2500 mg/kg, po administered once for 14 days by H and E staining analysis; type: organism-based; settings: in vivo, 336 h, dose 1000-2500 mg/kg, time 14 day
[5] = Acute toxicity in ICR mouse assessed as effect on spleen weight at 1000 to 2500 mg/kg, po administered once for 14 days; type: organism-based; settings: in vivo, 336 h, dose 1000-2500 mg/kg, time 14 day
[6] = target: CDK6/cyclin D3 (Homo sapiens, UniProt Q00534); assay: Inhibition of CDK6/Cyclin D3 (unknown origin) pre-incubated for 10 mins followed by ATP/substrate addition and measured after 120 mins by ADP-Glo assay; type: protein-complex assay
[7] = tested on: OVCAR-3; assay: Induction of apoptosis in human OVCAR-3 cells assessed as late apoptotic cells at 2 uM incubated for 24 hrs by Annexin V-FITC/PI staining based flow cytometry analysis (reference value: 2.67%); type: functional
[8] = C0 in Sprague-Dawley rat at 2 mg/kg, iv by LC-MS/MS analysis; type: ADME, organism-based; settings: in vivo
[9] = Toxicity in nude BALB/c mouse xenografted with human OVCAR-3 cells assessed as increase in body weight at 40 to 80 mg/kg, po administered once daily for 21 days; type: organism-based; settings: in vivo, 504 h, dose 40-80 mg/kg, time 21 day
[10] = tested on: OVCAR-3; assay: Induction of apoptosis in human OVCAR-3 cells assessed as upregulation of PARP cleavage incubated for 24 hrs by Western blot analysis; type: functional, cell-based
[11] = MRT (0 to infinity) in Sprague-Dawley rat at 20 mg/kg, po by LC-MS/MS analysis; type: ADME, organism-based; settings: in vivo
[12] = tested on: OVCAR-3; assay: Induction of apoptosis in human OVCAR-3 cells assessed as necrotic cells at 2 uM incubated for 24 hrs by Annexin V-FITC/PI staining based flow cytometry analysis (reference value: 0.87%); type: functional
[13] = tested on: OVCAR-3; assay: Upregulation of JUNB gene expression in human OVCAR-3 cells by GSEA; type: functional, cell-based
[14] = Acute toxicity in ICR mouse assessed as effect on lung weight at 1000 to 2500 mg/kg, po administered once for 14 days; type: organism-based; settings: in vivo, 336 h, dose 1000-2500 mg/kg, time 14 day
[15] = tested on: OVCAR-3; assay: Inhibition of colony formation in CCNE1-amplified human OVCAR-3 incubated for 2 weeks by crystal violet staining based inverted microscopic analysis; type: functional, cell-based; settings: dose 1-4 µM
[16] = Antiproliferative activity against Palbociclib-resistance human MCF7 cells assessed as cell growth inhibition; type: functional, cell-based, Palbociclib-resistant MCF7 cell
[17] = tested on: OVCAR-3; assay: Upregulation of JUN gene expression in human OVCAR-3 cells by GSEA; type: functional, cell-based
[18] = tested on: OVCAR-3; assay: Induction of cell cycle arrest in human OVCAR-3 cells assessed as accumulation of cells at G1 phase at 2 uM incubated for 24 hrs by flow cytometry analysis (reference value: 67.73%); type: functional
[19] = Acute toxicity in ICR mouse assessed as effect on kidney weight at 1000 to 2500 mg/kg, po administered once for 14 days; type: organism-based; settings: in vivo, 336 h, dose 1000-2500 mg/kg, time 14 day
[20] = tested on: OVCAR-3; assay: Induction of cell senescence in human OVCAR-3 cells assessed as increase in beta galactosidase activity incubated for 24 hrs by staining based inverted microscopic analysis; type: functional; settings: dose 1-2 µM
[21] = tested on: OVCAR-3; assay: Downregulation of proliferation-related signaling pathway gene expression in human OVCAR-3 cells by GSEA; type: functional, cell-based
[22] = tested on: OVCAR-3; assay: Induction of cell cycle arrest in human OVCAR-3 cells assessed as accumulation of cells at G1 phase at 1 uM incubated for 24 hrs by flow cytometry analysis (reference value: 67.73%); type: functional
[23] = Acute toxicity in ICR mouse assessed as pathological changes in liver at 1000 to 2500 mg/kg, po administered once for 14 days by H and E staining analysis; type: organism-based; settings: in vivo, 336 h, dose 1000-2500 mg/kg, time 14 day
[24] = Acute toxicity in ICR mouse assessed as pathological changes in lung at 1000 to 2500 mg/kg, po administered once for 14 days by H and E staining analysis; type: organism-based; settings: in vivo, 336 h, dose 1000-2500 mg/kg, time 14 day
[25] = tested on: OVCAR-3; assay: Induction of cell cycle arrest in human OVCAR-3 cells assessed as inhibition of RB phosphorylation level incubated for 24 hrs by Western blot analysis; type: functional, cell-based
[26] = target: Cyclin-dependent kinase 4/cyclin D1 (Homo sapiens, UniProt P11802); assay: Inhibition of CDK4/Cyclin D1 (unknown origin) pre-incubated for 10 mins followed by ATP/substrate addition and measured after 60 mins by ADP-Glo assay; type: protein-complex assay
[27] = tested on: OVCAR-3; assay: Upregulation of Bcl2l1gene expression in human OVCAR-3 cells by GSEA; type: functional, cell-based
[28] = Clearance in Sprague-Dawley rat at 2 mg/kg, iv by LC-MS/MS analysis; type: ADME, organism-based; settings: in vivo
[29] = Acute toxicity in ICR mouse assessed as animal death at 1000 to 2500 mg/kg, po administered once for 14 days; type: organism-based; settings: in vivo, 336 h, dose 1000-2500 mg/kg, time 14 day
[30] = tested on: OVCAR-3; assay: Upregulation of inflammation-related pathway gene expression in human OVCAR-3 cells by GSEA; type: functional, cell-based
[31] = tested on: OVCAR-3; assay: Induction of apoptosis in human OVCAR-3 cells assessed as viable cells at 1 uM incubated for 24 hrs by Annexin V-FITC/PI staining based flow cytometry analysis (reference value: 95.2%); type: functional; settings: read-out: Activity
[32] = AUC (0 to infinity) in Sprague-Dawley rat at 20 mg/kg, po by LC-MS/MS analysis; type: ADME, organism-based; settings: in vivo
[33] = tested on: OVCAR-3; assay: Induction of apoptosis in human OVCAR-3 cells assessed as late apoptotic cells at 1 uM incubated for 24 hrs by Annexin V-FITC/PI staining based flow cytometry analysis (reference value: 2.67%); type: functional
[34] = AUC (0 to infinity) in Sprague-Dawley rat at 2 mg/kg, iv by LC-MS/MS analysis; type: ADME, organism-based; settings: in vivo
[35] = tested on: OVCAR-3; assay: Induction of apoptosis in human OVCAR-3 cells incubated for 24 hrs by Annexin V-FITC/PI staining based flow cytometry analysis; type: functional, cell-based; settings: dose 1-2 µM
[36] = Half life in Sprague-Dawley rat at 20 mg/kg, po by LC-MS/MS analysis; type: ADME, organism-based; settings: in vivo
[37] = MRT (0 to infinity) in Sprague-Dawley rat at 2 mg/kg, iv by LC-MS/MS analysis; type: ADME, organism-based; settings: in vivo
[38] = tested on: OVCAR-3; assay: Induction of cell cycle arrest in human OVCAR-3 cells assessed as accumulation of cells at G2 phase at 1 uM incubated for 24 hrs by flow cytometry analysis (reference value: 21.77%); type: functional
[39] = Antiproliferative activity against CCNE1-amplified human OVCAR-3 cells assessed as cell growth inhibition incubated for 3 days by CCK8 assay; type: functional, cell-based; settings: OVCAR-3, 72 h
[40] = tested on: OVCAR-3; assay: Antitumor activity against human OVCAR-3 cells xenografted in nude BALB/c mouse model assessed as tumor growth inhibition at 80 mg/kg, po administered once daily for 21 days; type: functional, organism-based; settings: time 21.0 day

Cyclin-dependent kinase 4/cyclin D1, sequence (P11802 whole entry): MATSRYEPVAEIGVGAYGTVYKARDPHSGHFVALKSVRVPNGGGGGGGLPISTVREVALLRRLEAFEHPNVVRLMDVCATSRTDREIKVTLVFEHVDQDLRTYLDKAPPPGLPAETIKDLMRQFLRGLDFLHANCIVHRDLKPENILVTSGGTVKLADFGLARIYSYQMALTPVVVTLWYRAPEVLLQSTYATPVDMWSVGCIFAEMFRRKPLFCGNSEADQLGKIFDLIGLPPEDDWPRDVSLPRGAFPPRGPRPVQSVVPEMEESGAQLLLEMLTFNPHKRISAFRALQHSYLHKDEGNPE
Cyclin-dependent kinase 4/cyclin D1, sequence (P24385 whole entry, further chain): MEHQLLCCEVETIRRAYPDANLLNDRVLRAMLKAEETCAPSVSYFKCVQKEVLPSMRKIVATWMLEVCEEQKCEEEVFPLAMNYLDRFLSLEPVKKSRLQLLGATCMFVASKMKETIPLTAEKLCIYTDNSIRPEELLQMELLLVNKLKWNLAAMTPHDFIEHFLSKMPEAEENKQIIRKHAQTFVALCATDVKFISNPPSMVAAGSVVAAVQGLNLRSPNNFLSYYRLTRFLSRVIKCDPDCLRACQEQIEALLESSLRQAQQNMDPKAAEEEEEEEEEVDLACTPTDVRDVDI
CDK1/Cyclin A, sequence (P06493 whole entry): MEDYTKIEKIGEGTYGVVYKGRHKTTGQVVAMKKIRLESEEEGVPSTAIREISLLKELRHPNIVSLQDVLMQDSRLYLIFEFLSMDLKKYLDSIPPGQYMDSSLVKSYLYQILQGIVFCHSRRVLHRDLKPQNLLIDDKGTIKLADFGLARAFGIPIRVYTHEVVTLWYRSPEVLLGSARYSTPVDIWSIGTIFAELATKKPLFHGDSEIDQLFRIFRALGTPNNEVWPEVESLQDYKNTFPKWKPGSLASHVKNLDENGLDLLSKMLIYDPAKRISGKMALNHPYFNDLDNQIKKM
CDK1/Cyclin A, sequence (P20248 whole entry, further chain): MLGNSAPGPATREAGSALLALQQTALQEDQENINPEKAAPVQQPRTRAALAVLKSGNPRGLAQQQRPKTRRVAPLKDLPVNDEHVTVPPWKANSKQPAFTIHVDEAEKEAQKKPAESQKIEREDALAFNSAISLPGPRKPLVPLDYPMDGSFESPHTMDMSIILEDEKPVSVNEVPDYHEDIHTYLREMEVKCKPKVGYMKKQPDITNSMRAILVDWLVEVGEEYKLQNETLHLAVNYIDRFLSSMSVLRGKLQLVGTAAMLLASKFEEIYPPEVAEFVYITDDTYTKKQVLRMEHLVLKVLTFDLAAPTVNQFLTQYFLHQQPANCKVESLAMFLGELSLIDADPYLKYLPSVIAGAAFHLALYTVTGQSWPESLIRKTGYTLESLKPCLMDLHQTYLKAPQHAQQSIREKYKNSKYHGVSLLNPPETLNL
CDK6/cyclin D3, sequence (P30281 whole entry): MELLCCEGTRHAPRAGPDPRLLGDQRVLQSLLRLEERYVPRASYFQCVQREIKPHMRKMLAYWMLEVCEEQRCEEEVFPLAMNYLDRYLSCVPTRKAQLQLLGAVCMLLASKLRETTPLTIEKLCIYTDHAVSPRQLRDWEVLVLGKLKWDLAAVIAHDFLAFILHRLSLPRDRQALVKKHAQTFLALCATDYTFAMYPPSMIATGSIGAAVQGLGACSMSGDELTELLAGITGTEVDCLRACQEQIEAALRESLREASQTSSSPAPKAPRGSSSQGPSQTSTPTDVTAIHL
CDK6/cyclin D3, sequence (Q00534 whole entry): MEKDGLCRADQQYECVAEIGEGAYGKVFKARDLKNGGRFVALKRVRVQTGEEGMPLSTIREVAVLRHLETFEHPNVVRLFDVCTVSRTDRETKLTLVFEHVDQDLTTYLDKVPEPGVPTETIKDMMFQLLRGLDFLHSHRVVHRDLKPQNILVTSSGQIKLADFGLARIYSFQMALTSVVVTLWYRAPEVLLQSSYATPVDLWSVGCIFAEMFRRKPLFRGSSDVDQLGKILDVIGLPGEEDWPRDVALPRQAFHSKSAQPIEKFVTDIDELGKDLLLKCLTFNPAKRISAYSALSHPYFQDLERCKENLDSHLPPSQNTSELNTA

Q: For `CCC(C)n1cc(-c2nc(NC3CCN(S(=O)(=O)C4CC4)CC3)ncc2F)cc(F)c1=O` (stereo not given), which IC50 [1] is on record?
A: 15 nM

Q: What about the Activity [2] of the same compound?
A: Non-toxic

Q: What about the Activity [3] of the same compound?
A: 3.81%

Q: And the Activity [4]?
A: Non-toxic

Q: And the Activity [5]?
A: Non-toxic

Q: And the IC50 [6]?
A: 171 nM

Q: And the Activity [7]?
A: 13.2%

Q: What about the C0 [8] of the same compound?
A: 1670 ng/mL

Q: And the Activity [9]?
A: Non-toxic

Q: And the Activity [10]?
A: Dose-dependent-effect

Q: What about the MRT inf [11] of the same compound?
A: 6.7 h

Q: What about the Activity [12] of the same compound?
A: 3.74%

Q: What about the Activity [13] of the same compound?
A: Active

Q: And the Activity [14]?
A: Non-toxic

Q: What about the inhibition [15] of the same compound?
A: Dose-dependent-effect

Q: And the IC50 [16]?
A: 954 nM

Q: And the Activity [17]?
A: Active

Q: What about the Activity [18] of the same compound?
A: 96.27%

Q: What about the Activity [19] of the same compound?
A: Non-toxic

Q: And the Activity [20]?
A: Dose-dependent-effect

Q: And the Activity [21]?
A: Active

Q: What about the Activity [22] of the same compound?
A: 94.69%

Q: And the Activity [23]?
A: Non-toxic

Q: What about the Activity [24] of the same compound?
A: Non-toxic

Q: And the Activity [25]?
A: Active

Q: What about the IC50 [26] of the same compound?
A: 103 nM

Q: What about the Activity [27] of the same compound?
A: Active

Q: What about the clearance [28] of the same compound?
A: 28.3 mL/min/kg

Q: And the Activity [29]?
A: Non-toxic

Q: And the Activity [30]?
A: Active

Q: And the viability at 1 µM [31]?
A: 84.6%

Q: What about the AUC(0-inf) [32] of the same compound?
A: 11800 ng·h/mL

Q: What about the Activity [33] of the same compound?
A: 7.72%

Q: And the AUC(0-inf) [34]?
A: 1480 ng·h/mL

Q: What about the Activity [35] of the same compound?
A: Dose-dependent-effect

Q: And the half-life [36]?
A: 4.54 h

Q: What about the MRT inf [37] of the same compound?
A: 0.82 h

Q: And the Activity [38]?
A: 4.3%

Q: What about the IC50 [39] of the same compound?
A: 1610 nM

Q: And the Activity [40]?
A: Active
